# Measurements as given in the supplement of paper PMC11061612.
# Assays:
# Experiment in all cases: combination Emax (second highest fraction inhibited in the dose matrix, 72 h); higher = more inhibition; extreme values may be limits of the assay
# [1] = test system: BV-173 (Chronic Myelogenous Leukemia)
# Procedure, shortened: (§1)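 Bliss excess equals the observed combination effect minus the expected value EA + EB − EA·EB, where EA and EB are the effects of each agent alone. Combination Emax is the second-highest inhibition within the matrix. Inhibition was scaled from CellTiter-Glo 2.0 luminescence, with 0 set by vehicle wells and 1 by blank wells, after 72 hours of two-drug dosing of cells plated in 1536-well plates.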
# [2] = test system: EW-3 (Ewing's Sarcoma)
# Procedure, shortened: as §1
# [3] = test system: HuP-T3 (Pancreatic Carcinoma)
# Procedure, shortened: as §1
# [4] = test system: NH-12 (Neuroblastoma)
# Procedure, shortened: as §1
# [5] = test system: DG-75 (Burkitt's Lymphoma)
# Procedure, shortened: as §1
# [6] = test system: KP-2 (Pancreatic Carcinoma)
# Procedure, shortened: as §1
# [7] = test system: NCI-H1573 (Lung Adenocarcinoma)
# Procedure, shortened: as §1
# [8] = test system: HC-1 (Other Blood Carcinomas)
# Procedure, shortened: as §1
# [9] = test system: SNU-C1 (Colorectal Carcinoma)
# Procedure, shortened: as §1
# [10] = test system: H-EMC-SS (Chondrosarcoma)
# Procedure, shortened: as §1
# [11] = test system: VMRC-LCD (Lung Adenocarcinoma)
# Procedure, shortened: as §1
# [12] = test system: LC4-1 (B-Lymphoblastic Leukemia)
# Procedure, shortened: as §1
# [13] = test system: SCC-9 (Oral Cavity Carcinoma)
# Procedure, shortened: as §1
# [14] = test system: A704 (Kidney Carcinoma)
# Procedure, shortened: as §1
Structure (SMILES),combination Emax [1],combination Emax [2],combination Emax [3],combination Emax [4],combination Emax [5],combination Emax [6],combination Emax [7],combination Emax [8],combination Emax [9],combination Emax [10],combination Emax [11],combination Emax [12],combination Emax [13],combination Emax [14]
"CN(C)CCCOc1ccc(-c2ccc3ncc4c(c3c2)n(C2CCOCC2)c(=O)n4C)cn1 [AZD0156] + CCN(CCO)CCCOc1ccc2c(Nc3cc(CC(=O)Nc4cccc(F)c4)[nH]n3)ncnc2c1 [AZD2811] (first compound max 1 µM, 7x7, partner max 1 µM)",0.975,0.34,0.0599,0.674,0.365,0.0724,0.106,0.379,0.205,0.367,0.545,0.808,0.186,0.156
"CN(C)CCCOc1ccc(-c2ccc3ncc4c(c3c2)n(C2CCOCC2)c(=O)n4C)cn1 [AZD0156] + C[C@@H]1COCCN1C2=NC(=NC(=C2)C3(CC3)[S@](=N)(=O)C)C4=C5C=CNC5=NC=C4 [AZD6738] (first compound max 1 µM, 7x7, partner max 10 µM)",0.975,0.751,0.658,0.901,0.939,0.158,0.58,0.77,0.489,0.402,0.534,0.908,0.321,0.392
"CN(C)CCCOc1ccc(-c2ccc3ncc4c(c3c2)n(C2CCOCC2)c(=O)n4C)cn1 [AZD0156] + O=C(c1cc(Cc2n[nH]c(=O)c3ccccc23)ccc1F)N1CCN(C(=O)C2CC2)CC1 [Olaparib] (first compound max 3 µM, partner max 3 µM)",0.764,0.708,0.223,0.177,0.481,0.152,0.18,0.527,0.226,0.258,0.0443,0.673,0.262,0.247
"C=CCn1c(=O)c2cnc(Nc3ccc(N4CCN(C)CC4)cc3)nc2n1-c1cccc(C(C)(C)O)n1 [AZD1775] + C[C@@H]1COCCN1C2=NC(=NC(=C2)C3(CC3)[S@](=N)(=O)C)C4=C5C=CNC5=NC=C4 [AZD6738] (first compound max 1 µM, partner max 10 µM)",0.988,0.804,0.705,0.937,0.978,0.297,0.694,0.971,0.624,0.606,0.733,0.952,0.434,0.57
"C=CCn1c(=O)c2cnc(Nc3ccc(N4CCN(C)CC4)cc3)nc2n1-c1cccc(C(C)(C)O)n1 [AZD1775] + O=C(c1cc(Cc2n[nH]c(=O)c3ccccc23)ccc1F)N1CCN(C(=O)C2CC2)CC1 [Olaparib] (first compound max 1 µM, partner max 10 µM)",0.96,0.661,0.274,0.906,0.694,0.225,0.325,0.983,0.313,0.333,0.34,0.92,0.265,0.462
"CCN(CCO)CCCOc1ccc2c(Nc3cc(CC(=O)Nc4cccc(F)c4)[nH]n3)ncnc2c1 [AZD2811] + C=CCn1c(=O)c2cnc(Nc3ccc(N4CCN(C)CC4)cc3)nc2n1-c1cccc(C(C)(C)O)n1 [AZD1775] (first compound max 1 µM, partner max 1 µM)",0.987,0.402,0.197,0.877,0.776,0.206,0.178,0.983,0.151,0.257,0.553,0.896,0.172,0.392
"CCN(CCO)CCCOc1ccc2c(Nc3cc(CC(=O)Nc4cccc(F)c4)[nH]n3)ncnc2c1 [AZD2811] + C[C@@H]1COCCN1C2=NC(=NC(=C2)C3(CC3)[S@](=N)(=O)C)C4=C5C=CNC5=NC=C4 [AZD6738] (first compound max 1 µM, 7x7, partner max 10 µM)",0.994,0.724,0.589,0.858,0.841,0.12,0.479,0.789,0.435,0.412,0.708,0.97,0.336,0.43
"CCN(CCO)CCCOc1ccc2c(Nc3cc(CC(=O)Nc4cccc(F)c4)[nH]n3)ncnc2c1 [AZD2811] + O=C(c1cc(Cc2n[nH]c(=O)c3ccccc23)ccc1F)N1CCN(C(=O)C2CC2)CC1 [Olaparib] (first compound max 1 µM, 7x7, partner max 10 µM)",0.982,0.675,0.163,0.659,0.307,0.0558,0.152,0.681,0.276,0.236,0.545,0.854,0.19,0.188
"CN(CCO)CC[C@H](CSc1ccccc1)Nc1ccc(S(=O)(=O)NC(=O)c2ccc(N3CCC([C@@H](O)c4ccccc4-c4ccc(Cl)cc4)CC3)cc2)cc1S(=O)(=O)C(F)(F)F [AZD4320] + C1CN(CCC1(C(=O)N[C@@H](CCO)C2=CC=C(C=C2)Cl)N)C3=NC=NC4=C3C=CN4 [Capivasertib] (first compound max 1 µM, 7x7, partner max 3 µM)",0.962,0.918,0.118,0.886,0.266,0.842,0.575,0.616,0.775,0.753,0.0578,1,0.21,0.392
"CN(CCO)CC[C@H](CSc1ccccc1)Nc1ccc(S(=O)(=O)NC(=O)c2ccc(N3CCC([C@@H](O)c4ccccc4-c4ccc(Cl)cc4)CC3)cc2)cc1S(=O)(=O)C(F)(F)F [AZD4320] + C=CCn1c(=O)c2cnc(Nc3ccc(N4CCN(C)CC4)cc3)nc2n1-c1cccc(C(C)(C)O)n1 [AZD1775] (first compound max 1 µM, partner max 1 µM)",0.958,0.962,0.412,0.98,0.82,0.912,0.291,1,0.613,0.402,0.562,1,0.281,0.781
"CN(CCO)CC[C@H](CSc1ccccc1)Nc1ccc(S(=O)(=O)NC(=O)c2ccc(N3CCC([C@@H](O)c4ccccc4-c4ccc(Cl)cc4)CC3)cc2)cc1S(=O)(=O)C(F)(F)F [AZD4320] + CCN(CCO)CCCOc1ccc2c(Nc3cc(CC(=O)Nc4cccc(F)c4)[nH]n3)ncnc2c1 [AZD2811] (first compound max 1 µM, 7x7, partner max 1 µM)",0.965,0.949,0.128,0.962,0.196,0.921,0.27,0.969,0.531,0.521,0.582,1,0.333,0.563
"CN(CCO)CC[C@H](CSc1ccccc1)Nc1ccc(S(=O)(=O)NC(=O)c2ccc(N3CCC([C@@H](O)c4ccccc4-c4ccc(Cl)cc4)CC3)cc2)cc1S(=O)(=O)C(F)(F)F [AZD4320] + C[C@@H]1COCCN1C2=NC(=NC(=C2)C3(CC3)[S@](=N)(=O)C)C4=C5C=CNC5=NC=C4 [AZD6738] (first compound max 1 µM, 7x7, partner max 10 µM)",0.953,0.971,0.706,1,0.768,0.897,0.634,0.958,0.658,0.692,0.611,1,0.466,0.809
"CN(CCO)CC[C@H](CSc1ccccc1)Nc1ccc(S(=O)(=O)NC(=O)c2ccc(N3CCC([C@@H](O)c4ccccc4-c4ccc(Cl)cc4)CC3)cc2)cc1S(=O)(=O)C(F)(F)F [AZD4320] + C[C@@H](Nc1cc(F)cc(F)c1)c1cc(C(=O)N(C)C)cc2c(=O)cc(N3CCOCC3)oc12 [AZD8186] (first compound max 1 µM, 7x7, partner max 3 µM)",0.971,0.898,0.332,0.998,0.286,0.827,0.289,0.965,0.484,0.727,0.249,1,0.746,0.57
"CN(CCO)CC[C@H](CSc1ccccc1)Nc1ccc(S(=O)(=O)NC(=O)c2ccc(N3CCC([C@@H](O)c4ccccc4-c4ccc(Cl)cc4)CC3)cc2)cc1S(=O)(=O)C(F)(F)F [AZD4320] + Cc1cc2ncnn2cc1Nc1ncc2c(n1)n(C1CCOCC1)c(=O)n2C [AZD7648] (first compound max 1 µM, 7x7, partner max 10 µM)",0.961,0.958,0.153,0.927,0.472,0.857,0.135,0.58,0.633,0.524,0.0704,1,0.306,0.563
"CN(CCO)CC[C@H](CSc1ccccc1)Nc1ccc(S(=O)(=O)NC(=O)c2ccc(N3CCC([C@@H](O)c4ccccc4-c4ccc(Cl)cc4)CC3)cc2)cc1S(=O)(=O)C(F)(F)F [AZD4320] + Cn1cnc2c(F)c(Nc3ccc(Br)cc3Cl)c(C(=O)NOCCO)cc21 [Selumetinib] (first compound max 1 µM, 7x7, partner max 3 µM)",0.963,0.906,0.471,0.998,0.206,0.962,0.4,0.972,0.944,0.691,0.226,1,0.67,0.642
